Assay results from PubChem BioAssay AID330 (DTP/NCI, 2004).
Where “and” joins values, the source holds several entries; their conditions need not be identical. Equal values may be shown once. Inconclusive results and toxic doses are left out. Numbered stars: 1 amine (or outer) side, 2 acyl side, 3 side chain; on linkers, the order of the positions; unused ones are H or OH. Bridge positions count the residues as written; N and C are the ends. Square brackets hold non-standard residues; d marks the D form. Peptide text beside a SMILES is read from it. * marks the point of attachment. X2 = CC(C)C(C)C(C(=O)[*:2])N(C)[*:1]; Picolinoyl(3-OH) = O=C(c1ncccc1O)*; NMePhg = CN[CH](C(=O)O)c1ccccc1; Hyp = O=C(O)[CH]1C[CH](O)CN1; Sar = CNCC(=O)O

System: P388 leukemia ip, CD2F1 mice, survival T/C
Assay: NCI In Vivo Anticancer Drug Screen. Data for tumor model P388 Leukemia (intraperitoneal) in CD2F1 (CDF1) mice
Settings: endpoint: median survival time, higher = longer survival
Outline: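 Mice carrying the transplanted tumor received test compound or vehicle. Survival was recorded in each group, and the value is the treated-group measurement divided by that of the vehicle-treated control group.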

[1] = dose: 12.5 mg/kg/injection, schedule: Q01DX009 (ip), vehicle: Klucel (hydroxypropylcellulose) (HPC)
[2] = dose: 25.0 mg/kg/injection, schedule: Q01DX009 (ip), vehicle: Klucel (hydroxypropylcellulose) (HPC)
[3] = dose: 50.0 mg/kg/injection, schedule: Q01DX009 (ip), vehicle: Klucel (hydroxypropylcellulose) (HPC)
[4] = dose: 100.0 mg/kg/injection, schedule: Q01DX009 (ip), vehicle: Klucel (hydroxypropylcellulose) (HPC)
[5] = dose: 200.0 mg/kg/injection, schedule: Q01DX009 (ip), vehicle: Klucel (hydroxypropylcellulose) (HPC)
[6] = dose: 50.0 mg/kg/injection, schedule: Q01DX005 (ip), vehicle: Klucel (hydroxypropylcellulose) (HPC)
[7] = dose: 100.0 mg/kg/injection, schedule: Q01DX005 (ip), vehicle: Klucel (hydroxypropylcellulose) (HPC)
[8] = dose: 200.0 mg/kg/injection, schedule: Q01DX005 (ip), vehicle: Klucel (hydroxypropylcellulose) (HPC)
[9] = dose: 7.5 mg/kg/injection, schedule: Q01DX005 (ip), vehicle: saline with Tween-80
[10] = dose: 15.0 mg/kg/injection, schedule: Q01DX005 (ip), vehicle: saline with Tween-80
[11] = dose: 60.0 mg/kg/injection, schedule: Q01DX005 (ip), vehicle: saline with Tween-80
[12] = dose: 50.0 mg/kg/injection, schedule: Q01DX009 (ip), vehicle: saline with Tween-80
[13] = dose: 100.0 mg/kg/injection, schedule: Q01DX009 (ip), vehicle: saline with Tween-80
[14] = dose: 25.0 mg/kg/injection, schedule: Q01DX009 (ip), vehicle: saline with Tween-80
[15] = dose: 120.0 mg/kg/injection, schedule: Q01DX005 (ip), vehicle: saline with Tween-80
[16] = dose: 240.0 mg/kg/injection, schedule: Q01DX005 (ip), vehicle: saline with Tween-80

COc1ccc(C2CC(=O)N(c3ccncc3)C(=O)C2)cc1
T/C (dose: 50.0 mg/kg/injection, schedule: Q04DX002 (ip), vehicle: saline with Tween-80): 115 % of control
T/C (dose: 100.0 mg/kg/injection, schedule: Q04DX002 (ip), vehicle: saline with Tween-80): 95 % of control
T/C (dose: 200.0 mg/kg/injection, schedule: Q04DX002 (ip), vehicle: saline with Tween-80): 90 % of control

C#CCN1c2c(nc(N)[nH]c2=O)NCC1CNc1ccc(C(=O)NC(CCC(=O)O)C(=O)O)cc1 (stereo not given)
T/C (dose: 50.0 mg/kg/injection, schedule: Q01DX005 (ip), vehicle: alkali diluted with saline): 105 % of control
T/C (dose: 100.0 mg/kg/injection, schedule: Q01DX005 (ip), vehicle: alkali diluted with saline): 92 % of control
T/C (dose: 200.0 mg/kg/injection, schedule: Q01DX005 (ip), vehicle: alkali diluted with saline): 105 % of control

O=C1CC2C3Nc4ccccc4C3CCN2C2=C1CC(OC(=O)c1ccccc1)CC2 (stereo not given)
T/C (dose: 100.0 mg/kg/injection, schedule: Q04DX003 (ip), vehicle: saline sonified): 100 % of control
T/C (dose: 200.0 mg/kg/injection, schedule: Q04DX003 (ip), vehicle: saline sonified): 100 % of control
T/C (dose: 400.0 mg/kg/injection, schedule: Q04DX003 (ip), vehicle: saline sonified): 95 % of control

CC(C)CC1NC(=O)C(NC(=O)c2ncccc2O)C(C)OC(=O)C(c2ccccc2)N(C)C(=O)C(C)NC(=O)C(C(C)C(C)C)N(C)C(=O)CN(C)C(=O)C2CC(O)CN2C1=O (stereo not given) ({Picolinoyl(3-OH)}-TL[Hyp][Sar][X2]A[NMePhg]; ester 1-C; configuration not given here)
T/C [1]: 95 % of control
T/C [2]: 94 % of control
T/C [3]: 93 % of control
T/C [4]: 95 % of control and 97 % of control
T/C [5]: 98 % of control and 119 % of control

Cn1c(=O)[nH]c(Sc2ccccc2)c(C=O)c1=O
T/C (dose: 100.0 mg/kg/injection, schedule: Q01DX001 (ip), vehicle: saline with Tween-80): 104 % of control
T/C (dose: 200.0 mg/kg/injection, schedule: Q01DX001 (ip), vehicle: saline with Tween-80): 101 % of control

Cc1cccc(Cl)c1NC1=NCCO1
T/C (dose: 6.25 mg/kg/injection, schedule: Q04DX003 (ip), vehicle: saline with Tween-80): 95 % of control
T/C (dose: 12.5 mg/kg/injection, schedule: Q04DX003 (ip), vehicle: saline with Tween-80): 95 % of control
T/C (dose: 25.0 mg/kg/injection, schedule: Q04DX003 (ip), vehicle: saline with Tween-80): 100 % of control

COc1cc2c(cc1-c1coc3cc(OCC=C(C)C)ccc3c1=O)OCO2
T/C (dose: 9.0 mg/kg/injection, schedule: Q01DX005 (ip), vehicle: Klucel (hydroxypropylcellulose) (HPC)): 96 % of control
T/C (dose: 18.0 mg/kg/injection, schedule: Q01DX005 (ip), vehicle: Klucel (hydroxypropylcellulose) (HPC)): 94 % of control
T/C (dose: 36.0 mg/kg/injection, schedule: Q01DX005 (ip), vehicle: Klucel (hydroxypropylcellulose) (HPC)): 87 % of control
T/C (dose: 72.0 mg/kg/injection, schedule: Q01DX005 (ip), vehicle: Klucel (hydroxypropylcellulose) (HPC)): 92 % of control

O=C1CC(SC(=S)N2CCOCC2)C(=O)N1 (stereo not given)
T/C (dose: 100.0 mg/kg/injection, schedule: Q04DX002 (ip), vehicle: saline): 99 % of control and 103 % of control
T/C (dose: 200.0 mg/kg/injection, schedule: Q04DX002 (ip), vehicle: saline): 99 % of control and 97 % of control
T/C (dose: 400.0 mg/kg/injection, schedule: Q04DX002 (ip), vehicle: saline): 100 % of control and 109 % of control

O=C(O)CSc1nnc(Cc2cccc3ccccc23)n1-c1ccccc1
T/C [6]: 100 % of control
T/C [7]: 102 % of control
T/C [8]: 100 % of control

COc1ccc(CCNC2(C#N)CCCCC2)cc1OC
T/C [3]: 98 % of control
T/C [4]: 102 % of control

COc1cc(O)c(/C=N/NC(=S)NC23CC4CC(CC(C4)C2)C3)c(OC)c1
T/C [9]: 105 % of control
T/C [10]: 101 % of control and 103 % of control
T/C [11]: 93 % of control

O=C(C=Nc1ccc(Cl)c(Cl)c1)c1ccccc1
T/C [3]: 100 % of control
T/C [4]: 100 % of control
T/C [5]: 94 % of control

CC1=NCC[N-]CC[N-]CCN=C(C)C2CCCC1[N-]2.[Mn+3]
T/C [9]: 100 % of control
T/C [10]: 96 % of control
T/C (dose: 30.0 mg/kg/injection, schedule: Q01DX005 (ip), vehicle: saline with Tween-80): 96 % of control

CC(C)(C)C1=CC(CC(N)=O)(C(C)(C)C)OC1=O (stereo not given)
T/C [6]: 98 % of control
T/C [7]: 100 % of control
T/C [8]: 105 % of control

CCOC(=O)C(Cc1c[nH]c2ccccc12)NCc1ccc(N(CCCl)CCCl)cc1 (stereo not given)
T/C (dose: 10.0 mg/kg/injection, schedule: Q01DX009 (ip), vehicle: saline with Tween-80): 94 % of control
T/C (dose: 20.0 mg/kg/injection, schedule: Q01DX009 (ip), vehicle: saline with Tween-80): 110 % of control
T/C (dose: 40.0 mg/kg/injection, schedule: Q01DX009 (ip), vehicle: saline with Tween-80): 110 % of control
T/C [12]: 97 % of control
T/C (dose: 80.0 mg/kg/injection, schedule: Q01DX009 (ip), vehicle: saline with Tween-80): 123 % of control
T/C [13]: 106 % of control

Oc1c(CN2CCCCC2)ccc2cccnc12
T/C (dose: 0.78 mg/kg/injection, schedule: Q01DX009 (ip), vehicle: saline with Tween-80): 107 % of control and 92 % of control
T/C (dose: 1.56 mg/kg/injection, schedule: Q01DX009 (ip), vehicle: saline with Tween-80): 99 % of control and 97 % of control
T/C (dose: 3.12 mg/kg/injection, schedule: Q01DX009 (ip), vehicle: saline with Tween-80): 107 % of control
T/C (dose: 6.25 mg/kg/injection, schedule: Q01DX009 (ip), vehicle: saline with Tween-80): 99 % of control and 110 % of control and 122 % of control
T/C (dose: 12.5 mg/kg/injection, schedule: Q01DX009 (ip), vehicle: saline with Tween-80): 99 % of control and 106 % of control and 108 % of control
T/C [14]: 113 % of control
T/C [12]: 113 % of control

CC(=O)Nc1ccc2c(ccc3ccccc32)c1
T/C [14]: 107 % of control
T/C [12]: 113 % of control
T/C [13]: 118 % of control
T/C (dose: 200.0 mg/kg/injection, schedule: Q01DX009 (ip), vehicle: saline with Tween-80): 115 % of control

O=C(O)C1Cc2c([nH]c3ccccc23)C(CO)N1 (stereo not given)
T/C (dose: 25.0 mg/kg/injection, schedule: Q01DX009 (ip), vehicle: suspension in saline): 107 % of control
T/C (dose: 50.0 mg/kg/injection, schedule: Q01DX009 (ip), vehicle: suspension in saline): 104 % of control

Nc1nc(N)c2c(Cl)c(CNc3ccc(C(=O)NC(CC(=O)O)CC(=O)O)cc3)ccc2n1
T/C (dose: 1.5 mg/kg/injection, schedule: Q01DX005 (ip), vehicle: saline with Tween-80): 155 % of control
T/C (dose: 3.0 mg/kg/injection, schedule: Q01DX005 (ip), vehicle: saline with Tween-80): 174 % of control
T/C (dose: 6.0 mg/kg/injection, schedule: Q01DX005 (ip), vehicle: saline with Tween-80): 202 % of control
T/C (dose: 6.25 mg/kg/injection, schedule: Q01DX005 (ip), vehicle: saline with Tween-80): 235 % of control
T/C (dose: 12.0 mg/kg/injection, schedule: Q01DX005 (ip), vehicle: saline with Tween-80): 275 % of control

CC(C)CN(CC(C)C)CN(CC(C)C)CC(C)C
T/C (dose: 50.0 mg/kg/injection, schedule: Q01DX005 (ip), vehicle: saline with Tween-80): 100 % of control
T/C (dose: 100.0 mg/kg/injection, schedule: Q01DX005 (ip), vehicle: saline with Tween-80): 119 % of control

Nc1ncnc2ccccc12
T/C [1]: 107 % of control
T/C [2]: 89 % of control
T/C [3]: 108 % of control and 89 % of control
T/C [4]: 108 % of control

Cc1cc(=O)n2[nH]c(-c3ccco3)cc2n1
T/C [11]: 104 % of control
T/C [15]: 104 % of control
T/C [16]: 105 % of control

CCCNC(=O)CCC(NS(=O)(=O)c1ccccc1)C(=O)O (stereo not given)
T/C (dose: 100.0 mg/kg/injection, schedule: Q04DX002 (ip), vehicle: Klucel (hydroxypropylcellulose) (HPC)): 91 % of control
T/C (dose: 200.0 mg/kg/injection, schedule: Q04DX002 (ip), vehicle: Klucel (hydroxypropylcellulose) (HPC)): 102 % of control
T/C (dose: 400.0 mg/kg/injection, schedule: Q04DX002 (ip), vehicle: Klucel (hydroxypropylcellulose) (HPC)): 96 % of control

O=C(Cc1nc2ccccc2[nH]c1=O)N/N=C/c1ccc2c(c1)CCC2
T/C [11]: 92 % of control and 95 % of control
T/C [15]: 100 % of control
T/C [16]: 89 % of control

N#C/C(C(N)=O)=C1/C(=O)Nc2ccccc21
T/C [6]: 103 % of control
T/C [7]: 98 % of control
T/C [8]: 94 % of control
